Measurements reported in patent publication US4237116A, “Combination of thiopeptin and rumensin to improve ruminant feed efficiency” (Merck & Co., Inc., priority 1979, dated 1980).

System: ruminants (cattle)
Experiment: Propionate content of rumen fluid in cattle given medicated feed (high roughage diet, then shifted to high grain diet)
Type: in vivo
Experimental: The synergistic effect of the combination of thiopeptin and rumensin has been observed by administering the two compounds to ruminants on a controlled diet and taking periodic samples of rumen fluid. The amount of each of the volatile fatty acids present in the rumen fluid is measured and compared with that of animals taking no medication and also with animals given only one of the two compounds. This effect has been observed in ruminants on diets of both the high roughage and high grain types. […] Animals given the same diet but with 8.25 ppm of thiopeptin in the diet for 7 days had 25.87 mole % of propionate. Animals given 16.5 ppm of rumensin for 7 days had 25.81 mole % of propionate. […] In the same test, the animal's feed was then shifted to a high grain diet and after 2 days rumen samples again taken. The control animals had 21.73 mole % of propionate. The thiopeptin treated animals (at the same dose as the first test) had 27.31 mole % propionate. The rumensin treated animals (again at the same dose as previously) had 25.95 mole % of propionate.

[1] = high roughage diet, drug in the diet for 7 days, thiopeptin 8.25 ppm, rumensin 16.5 ppm, combination 8.25 ppm + 16.5 ppm, control animals 24.16 mole %
[2] = same test after shift to high grain diet, rumen samples after 2 days, same doses (thiopeptin 8.25 ppm, rumensin 16.5 ppm, combination of both), control animals 21.73 mole %

Molecule | propionate in the rumen fluid [1] | propionate in the rumen fluid [2]
CC[C@@]1([C@H]2O[C@H]([C@H]3O[C@@](O)(CO)[C@H](C)C[C@@H]3C)C[C@H]2C)CC[C@H]([C@@]2(C)CC[C@]3(C[C@H](O)[C@@H](C)[C@@H]([C@H](C)[C@H](OC)[C@@H](C)C(=O)[O-])O3)O2)O1.[Na+] [rumensin, Rumensin] | 25.81 mole % | 25.95 mole %
Thiopeptin | 25.87 mole % | 27.31 mole %
